Read-outs that look alike come from different tables or passages of the source.
Columns and labels:
[1] = Plasma levels in Atrial Arrhythmia Conversion Trial 1 (Example 6); assay type: in vivo, human; conditions: for concentration at 10 min: human, plasma, intravenous
Experimental: Plasma levels were obtained, where possible, for the patients at various time intervals following the initial infusion. The time intervals were 10 minutes (i.e., immediately after the initial infusion), 35 minutes (i.e., immediately after the second infusion where applicable), 50 minutes, 90 minutes, and 24 hours.

[2] = tested on: atrial fibrillation (AF duration 3 hr-7 days; 8-45 days); assay: Effect of age, gender and prior rate control medications on conversion of AF to SR (Example 4); assay type: in vivo, human; conditions: for Number of Pts Converted to Sinus Rhythm / Pts (%) Converted to Sinus Rhythm: AF Duration 3 hr-7 days
Experimental: Patients (pts) were block randomized in a double-blind, controlled study in a 2:1 ratio to receive COMPOUND A or placebo, stratified by AF duration (3 hr-7 days; 8-45 days). COMPOUND A (3 mg/kg), or similar appearing placebo, were infused over 10-min, followed by a second infusion if AF was not terminated (2 mg/kg or placebo). The proportion of pts with AF duration 3 hr-7 days who had treatment-induced conversion to SR within 90 min was the primary endpoint. Logistic regression was used to examine the effect of age (<65 vs ≧65), gender, and a prior use of rate control medications (beta blockers, calcium antagonists, digoxin).

[3] = tested on: Human Cardiac Electrophysiology; assay: Electrophysiological effects of two intravenous doses in patients (Example 1); assay type: in vivo; parameters: AH interval / HV interval / VERP / AERP / QT / QRS / Atrial MAP50: unit not given here; conditions: for Diastolic BP / HEART RATE / Systolic BP: T = 45 min
Experimental: This example provides the results of a study conducted to determine the electrophysiological effects of two intravenous doses of COMPOUND A. Patients in the study required electrophysiologic studies (with or without radiofrequency ablation) and were from 18 to 75 years of age. Following the study and ablation (if applicable), the atrial MAP catheter was positioned and the following electrophysiological measures were performed: • 1. Intervals reflecting conduction: […] Intervals reflecting repolarization/refractoriness: • a). […] Heart rate, brachial (cuff) blood pressure. Drug Administration: • 1. […] Twenty five minutes after the start of intravenous drug infusion (15 minutes after the end of loading and start of maintenance infusion), all electrophysiological measures were repeated.

[4] = patients receiving both infusions
[5] = patients receiving only a first infusion
[6] = 30 days following drug administration

COc1ccc(CCO[C@@H]2CCCC[C@H]2N2CC[C@@H](O)C2)cc1OC.Cl [COMPOUND A, (1R,2R)-2-[(3R)-hydroxypyrrolidinyl]-1-(3,4-dimethoxyphenethoxy)cyclohexane monohydrochloride]
concentration at 10 min ([1]; 2 mg/kg, patients receiving both infusions (3.0 + 2.0 mg/kg), read-out: Plasma Concentration of COMPOUND A at 10 min., Mean): 3910 ng/mL
concentration at 10 min ([1]; 3 mg/kg, patients receiving only a first infusion (3.0 mg/kg), read-out: Plasma Concentration of COMPOUND A at 10 min., Mean): 4280 ng/mL
concentration at 10 min ([1]; 3 mg/kg, patients receiving only a first infusion, read-out: Plasma Concentration of COMPOUND A at 10 min., Maximum): 11600 ng/mL
concentration at 10 min ([1]; 3 mg/kg, patients receiving only a first infusion, read-out: Plasma Concentration of COMPOUND A at 10 min., Median): 4080 ng/mL
concentration at 10 min ([1]; 3 mg/kg, patients receiving only a first infusion, read-out: Plasma Concentration of COMPOUND A at 10 min., Minimum): 0 ng/mL
concentration at 10 min ([1]; patients receiving both infusions, read-out: Plasma Concentration of COMPOUND A at 10 min., Maximum): 9330 ng/mL
concentration at 10 min ([1]; patients receiving both infusions, read-out: Plasma Concentration of COMPOUND A at 10 min., Median): 4070 ng/mL
concentration at 10 min ([1]; patients receiving both infusions, read-out: Plasma Concentration of COMPOUND A at 10 min., Minimum): 0 ng/mL
Maximum Plasma Concentration of COMPOUND A, Maximum [1, 4]: 9330 ng/mL
Maximum Plasma Concentration of COMPOUND A, Median [1, 4]: 4855 ng/mL
Maximum Plasma Concentration of COMPOUND A, Minimum [1, 4]: 1430 ng/mL
Maximum Plasma Concentration of COMPOUND A, Mean ([1]; patients receiving both infusions (3.0 + 2.0 mg/kg)): 4662 ng/mL
Maximum Plasma Concentration of COMPOUND A, Maximum [1, 5]: 11600 ng/mL
Maximum Plasma Concentration of COMPOUND A, Median [1, 5]: 4075 ng/mL
Maximum Plasma Concentration of COMPOUND A, Minimum [1, 5]: 7 ng/mL
Maximum Plasma Concentration of COMPOUND A, Mean ([1]; patients receiving only a first infusion (3.0 mg/kg)): 4466 ng/mL
median time to conversion ([2]; 3 hr-7 day group (n=75)): 11 min
pts with serious adverse events (%) [2, 6]: 13%
pts with serious adverse events (number) [2, 6]: 29
Number of Pts Converted to Sinus Rhythm ([2]; Men): 53
Pts (%) Converted to Sinus Rhythm ([2]; Men): 52%
Number of Pts Converted to Sinus Rhythm ([2]; No Prior Rate Control Drugs): 19
Pts (%) Converted to Sinus Rhythm ([2]; No Prior Rate Control Drugs): 53%
Number of Pts Converted to Sinus Rhythm ([2]; Prior Rate Control Drugs): 56
Pts (%) Converted to Sinus Rhythm ([2]; Prior Rate Control Drugs): 51%
Number of Pts Converted to Sinus Rhythm ([2]; Women): 22
Pts (%) Converted to Sinus Rhythm ([2]; Women): 51%
Number of Pts Converted to Sinus Rhythm ([2]; age <65): 49
Pts (%) Converted to Sinus Rhythm ([2]; age <65): 56%
Number of Pts Converted to Sinus Rhythm ([2]; age ≧65): 26
Pts (%) Converted to Sinus Rhythm ([2]; age ≧65): 46%
drug-related Torsades de Pointes ([2]; in vivo): No cases
patients converted to SR ([2]; primary end-point group, AF 3 hr-7 days, 3 mg/kg then 2 mg/kg, within 90 min): 52%
AERP 400 Ave Δ ([3]; Dose Level 1): 3.3 ± 5.4%
AERP 400 Ave Δ (Change from Baseline) ([3]; Dose Level 1): 5.0 ± 9.0 ms
SNRT (A1 400) ([3]; Dose Level 1): 1114.4 ± 227.4 ms
SNRT (A1 600) ([3]; Dose Level 1): 1157.8 ± 238.3 ms
Wenckebach Cycle Length ([3]; Dose Level 1): 388.1 ± 94.4 ms
Diastolic BP ([3]; Dose Level 1, 2 mg/kg): 84 ± 12 mm Hg
HEART RATE ([3]; Dose Level 1, 2 mg/kg): 78 ± 11 bpm
Systolic BP ([3]; Dose Level 1, 2 mg/kg): 135 ± 15 mm Hg
AERP ([3]; Dose Level 1, 300 msec): 180.5 ± 15.5
AERP ([3]; Dose Level 1, 400 msec): 195.0 ± 23.8
VERP ([3]; Dose Level 1, 400 msec): 226.7 ± 16.4
AH interval ([3]; Dose Level 1, 400 msec pacing): 134.2 ± 69.2
HV interval ([3]; Dose Level 1, 400 msec pacing): 52.5 ± 13.6
PA interval ([3]; Dose Level 1, 400 msec pacing): 61.8 ± 30.2
PR interval ([3]; Dose Level 1, 400 msec pacing): 239.2 ± 76.7
AERP ([3]; Dose Level 1, 600 msec): 219.5 ± 32.2
VERP ([3]; Dose Level 1, 600 msec): 247.8 ± 22.0
AH interval ([3]; Dose Level 1, 600 msec pacing): 113.8 ± 29.9
HV interval ([3]; Dose Level 1, 600 msec pacing): 50.1 ± 12.6
PA interval ([3]; Dose Level 1, 600 msec pacing): 64.0 ± 22.4
PR interval ([3]; Dose Level 1, 600 msec pacing): 227.7 ± 45.3
Atrial MAP50 ([3]; Dose Level 1, A1 200 msec): 116.4 ± 15.4
Atrial MAP50 ([3]; Dose Level 1, A1 250 msec): 134.2 ± 18.4
Atrial MAP50 ([3]; Dose Level 1, A1 300 msec): 139.5 ± 20.4
Atrial MAP50 ([3]; Dose Level 1, A1 400 msec): 152.6 ± 19.7
QRS ([3]; Dose Level 1, A1 400 msec): 87.0 ± 6.6
QT ([3]; Dose Level 1, A1 400 msec): 325.4 ± 9.0
Atrial MAP50 ([3]; Dose Level 1, A1 600 msec): 172.8 ± 31.9
QRS ([3]; Dose Level 1, A1 600 msec): 89 ± 9
QT ([3]; Dose Level 1, A1 600 msec): 363 ± 27
QRS Ave Δ ([3]; Dose Level 1, V1 400): 7.6 ± 11.5%
QRS ([3]; Dose Level 1, V1 400 msec): 160.5 ± 23.0
QT ([3]; Dose Level 1, V1 400 msec): 381.5 ± 25.2
QRS ([3]; Dose Level 1, V1 600 msec): 169 ± 24
QT ([3]; Dose Level 1, V1 600 msec): 433 ± 30
AERP 400 Ave Δ ([3]; Dose Level 2): 14.7 ± 11.5 %
AERP 400 Ave Δ (Change from Baseline) ([3]; Dose Level 2): 24.4 ± 17.8 ms
AERP 600 Ave Δ ([3]; Dose Level 2): 16.9 ± 9.0 %
SNRT (A1 400) ([3]; Dose Level 2): 1047.1 ± 212.2 ms
SNRT (A1 600) ([3]; Dose Level 2): 1033.3 ± 247.8 ms
Wenckebach Cycle Length ([3]; Dose Level 2): 366.9 ± 53.7 ms
Diastolic BP ([3]; Dose Level 2, 4 mg/kg): 75 ± 9 mm Hg
HEART RATE ([3]; Dose Level 2, 4 mg/kg): 91 ± 19 bpm
Systolic BP ([3]; Dose Level 2, 4 mg/kg): 126 ± 15 mm Hg
AERP ([3]; Dose Level 2, 300 msec): 192.8 ± 20.2
AERP ([3]; Dose Level 2, 400 msec): 206.7 ± 25.6
VERP ([3]; Dose Level 2, 400 msec): 227.5 ± 16.3
AH interval ([3]; Dose Level 2, 400 msec pacing): 147.0 ± 67.6
HV interval ([3]; Dose Level 2, 400 msec pacing): 50.2 ± 8.4
PA interval ([3]; Dose Level 2, 400 msec pacing): 75.8 ± 24.4
PR interval ([3]; Dose Level 2, 400 msec pacing): 261.2 ± 60.4
AERP ([3]; Dose Level 2, 600 msec): 227.9 ± 22.5
VERP ([3]; Dose Level 2, 600 msec): 261.7 ± 16.3
AH interval ([3]; Dose Level 2, 600 msec pacing): 101.7 ± 21.5
HV interval ([3]; Dose Level 2, 600 msec pacing): 50.9 ± 7.0
PA interval ([3]; Dose Level 2, 600 msec pacing): 69.1 ± 21.5
PR interval ([3]; Dose Level 2, 600 msec pacing): 224.6 ± 18.8
Atrial MAP50 ([3]; Dose Level 2, A1 200 msec): 124.0
Atrial MAP50 ([3]; Dose Level 2, A1 250 msec): 130.0 ± 14.5
Atrial MAP50 ([3]; Dose Level 2, A1 300 msec): 135.6 ± 20.4
Atrial MAP50 ([3]; Dose Level 2, A1 400 msec): 143.7 ± 25.2
QRS ([3]; Dose Level 2, A1 400 msec): 86.4 ± 9.0
QT ([3]; Dose Level 2, A1 400 msec): 336.7 ± 27.8
Atrial MAP50 ([3]; Dose Level 2, A1 600 msec): 165.5 ± 33.3
QRS ([3]; Dose Level 2, A1 600 msec): 89 ± 8
QT ([3]; Dose Level 2, A1 600 msec): 364 ± 20
QRS ([3]; Dose Level 2, V1 400 msec): 157.3 ± 22.5
QT ([3]; Dose Level 2, V1 400 msec): 376.3 ± 32.5
QRS ([3]; Dose Level 2, V1 600 msec): 157 ± 15
QT ([3]; Dose Level 2, V1 600 msec): 412 ± 30
effect on ventricular refractoriness, repolarization or conduction ([3]; at the doses studied): no significant effect
conduction effect in the AV node, His Purkinje, and ventricular tissue ([3]; conclusion of study): small but significant conduction slowing effect
effect on atrial refractory periods ([3]; conclusion of study): dose-dependently prolongs
patients with a metallic taste in mouth ([3]; n=19, both dose levels): three
patients with a transient tingling sensation ([3]; n=19, both dose levels): four
patients with numbness in tongue ([3]; n=19, both dose levels): one
patients with transient hypotension ([3]; n=19, both dose levels): one
